Here are results for nine compounds from PubChem BioAssay (NCI).

SMILES strings stand for the structures.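 A five-concentration, 48-hour dose response in 96-well plates underlies each endpoint, interpolated linearly between surrounding concentrations. Here, GI50 denotes the concentration required for 50% inhibition of growth. TGI denotes the concentration required for complete inhibition of growth.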

Some test systems named below: SK-MEL-28 melanoma; UACC-257 melanoma; BT-549 breast; NCI-H522 lung; SNB-19 CNS; MDA-MB-231 breast; 786-0 renal; HT29 colon; HOP-92 NSCLC; HCT-15 colon.
Common to all, as to experiment: NCI tumour cell line growth inhibition, 48 h

As for `COc1ccc(-c2nc(-c3nc4ccc(OC)cc4[nH]3)c3ccccn23)cc1`, the GI50 in the assay on SK-MEL-28 melanoma is 18.5 µM; with UACC-257 melanoma, 4.39 µM; in the assay with BT-549 breast, 3.2 µM; in the assay with NCI-H522 lung, 2.89 µM; in the assay with SNB-19 CNS, 5.26 µM; with MDA-MB-231 breast, 5.65 µM. Further, the GI50 in the assay on 786-0 renal is 8.47 µM; in the assay on HT29 colon, 3.75 µM; with HOP-92 NSCLC, 2.31 µM; with HCT-15 colon, 3.76 µM. For the same compound, the TGI was over 100 µM in the assay with SK-MEL-28 melanoma; 26.1 µM with UACC-257 melanoma; 8.86 µM in the assay with BT-549 breast; 11.2 µM in the assay with NCI-H522 lung; over 100 µM in the assay with SNB-19 CNS; over 100 µM in the assay on MDA-MB-231 breast. Besides, the TGI was over 100 µM with 786-0 renal, over 100 µM with HT29 colon, 8.4 µM in the assay with HOP-92 NSCLC and 90.6 µM with HCT-15 colon.
Consider `CC(=O)OCC1OC(n2cnc(C(N)=S)c2N)C(OC(C)=O)C1OC(C)=O` (stereo unspecified), for which the TGI in the assay with SK-MEL-28 melanoma, with UACC-257 melanoma, in the assay on BT-549 breast, in the assay on NCI-H522 lung, with SNB-19 CNS and with MDA-MB-231 breast was over 100 µM each time. Also, the TGI in the assay with 786-0 renal, in the assay on HT29 colon, in the assay with HOP-92 NSCLC and in the assay with HCT-15 colon was over 100 µM in each case.
As for `CCC1C2Cc3ccc(O)cc3C1(CC)CCN2C` (stereo unspecified), the TGI in the assay on SK-MEL-28 melanoma, in the assay with UACC-257 melanoma, in the assay on BT-549 breast, in the assay on NCI-H522 lung, with SNB-19 CNS and in the assay on MDA-MB-231 breast was over 100 µM throughout. In addition, the TGI in the assay with 786-0 renal, with HT29 colon, in the assay on HOP-92 NSCLC and with HCT-15 colon was over 100 µM in each case.
For `COc1ccc(/C(COc2ccc3c(=O)cc(-c4ccccc4)oc3c2)=N\O)cc1`, the GI50 with SK-MEL-28 melanoma is 19.5 µM; in the assay with UACC-257 melanoma, 19.6 µM; in the assay on BT-549 breast, 12.9 µM; in the assay on NCI-H522 lung it was 7.32 µM; with SNB-19 CNS it was 18.7 µM; with MDA-MB-231 breast, 5.82 µM. Besides, the GI50 with 786-0 renal was 17.2 µM; with HT29 colon it was 25.6 µM; in the assay on HOP-92 NSCLC it was over 27.7 µM; in the assay with HCT-15 colon, 22.8 µM. For the same compound, the TGI is over 41.9 µM in the assay with SK-MEL-28 melanoma; over 35.5 µM in the assay with UACC-257 melanoma; 25.8 µM with BT-549 breast; 26.6 µM in the assay with NCI-H522 lung; over 50 µM in the assay with SNB-19 CNS; 22.5 µM with MDA-MB-231 breast. Further, the TGI in the assay on 786-0 renal, with HT29 colon, in the assay on HOP-92 NSCLC and with HCT-15 colon was over 50 µM each time.
Turning to `COc1ccc(C(=O)c2cc(OC)c(OC)c(OC)c2)cc1OC(=O)CCl`, the GI50 in the assay with SK-MEL-28 melanoma was 0.358 µM; in the assay on UACC-257 melanoma, over 100 µM; with BT-549 breast, under 0.0192 µM; with NCI-H522 lung, 0.0196 µM; in the assay on SNB-19 CNS, under 0.0283 µM; in the assay on MDA-MB-231 breast, 0.0362 µM. The GI50 in the assay with 786-0 renal was 0.554 µM; in the assay with HT29 colon, 1.94 µM; in the assay with HCT-15 colon, under 0.0132 µM. For the same compound, the TGI in the assay on SK-MEL-28 melanoma, with UACC-257 melanoma, with NCI-H522 lung, with SNB-19 CNS, in the assay on 786-0 renal and in the assay on HT29 colon was over 100 µM in each case. Moreover, the TGI with HOP-92 NSCLC and in the assay with HCT-15 colon was over 100 µM throughout.
In the case of `COc1cc(C(=O)O[C@H](C(=O)NCCCCCNC(=O)[C@@H](OC(=O)c2cc(OC)cc3c(C)cccc23)[C@]2(C)CO2)[C@]2(C)CO2)c2cccc(C)c2c1`, the GI50 in the assay with SK-MEL-28 melanoma is 0.205 µM; in the assay on UACC-257 melanoma, 2.03 µM; in the assay on BT-549 breast, 1.13 µM; in the assay on NCI-H522 lung it was 0.565 µM; with SNB-19 CNS it was 0.93 µM; in the assay with MDA-MB-231 breast it was 0.893 µM. The GI50 in the assay with 786-0 renal is under 0.01 µM; with HT29 colon, 0.182 µM; with HOP-92 NSCLC, 0.292 µM; with HCT-15 colon, 0.174 µM. Besides, the TGI in the assay with UACC-257 melanoma is 5.33 µM; in the assay on BT-549 breast, 5.8 µM; with NCI-H522 lung, over 22.3 µM; with SNB-19 CNS it was over 20.4 µM; in the assay with MDA-MB-231 breast, 4.03 µM; in the assay on 786-0 renal, 0.0115 µM. The TGI with HT29 colon is over 100 µM; in the assay on HOP-92 NSCLC, 0.867 µM; in the assay with HCT-15 colon, 2.13 µM.
For `CC(C)[C@H](N)C(=O)N1CCC[C@H]1B(O)O`, the GI50 in the assay on SK-MEL-28 melanoma, in the assay with UACC-257 melanoma, in the assay on BT-549 breast, in the assay with NCI-H522 lung, with SNB-19 CNS and in the assay on MDA-MB-231 breast was over 100 µM throughout. For the same compound, the GI50 in the assay with 786-0 renal, with HT29 colon, in the assay with HOP-92 NSCLC and with HCT-15 colon was over 100 µM in each case. In addition, the TGI in the assay with SK-MEL-28 melanoma, in the assay with UACC-257 melanoma, with BT-549 breast, in the assay with NCI-H522 lung, in the assay on SNB-19 CNS and with MDA-MB-231 breast was over 100 µM in each case. Moreover, the TGI with 786-0 renal, in the assay with HT29 colon, in the assay on HOP-92 NSCLC and with HCT-15 colon was over 100 µM throughout.
`C=C1C(=O)O[C@H]2[C@H]1CC/C(COC(=O)NCc1ccc(Cn3c(=O)sn(CCCl)c3=O)cc1)=C\CC[C@@]1(C)O[C@@H]21`: the GI50 in the assay on SK-MEL-28 melanoma was 1.74 µM; in the assay with UACC-257 melanoma, 1.85 µM; with BT-549 breast, 1.45 µM; with NCI-H522 lung it was 1.38 µM; with SNB-19 CNS it was 11.9 µM; in the assay on MDA-MB-231 breast, 1.89 µM. Besides, the GI50 with 786-0 renal is 1.79 µM; with HT29 colon it was 2.16 µM; in the assay with HOP-92 NSCLC it was 1.5 µM; in the assay on HCT-15 colon, 1.85 µM. In addition, the TGI in the assay with SK-MEL-28 melanoma is 3.38 µM; with UACC-257 melanoma it was 4.98 µM; in the assay with BT-549 breast it was 2.78 µM; in the assay with NCI-H522 lung, 2.98 µM; with SNB-19 CNS it was 26.1 µM; in the assay with MDA-MB-231 breast it was 3.68 µM. Besides, the TGI with 786-0 renal amounted to 3.27 µM; with HT29 colon it was 4.77 µM; in the assay on HOP-92 NSCLC, 3.22 µM; with HCT-15 colon it was 3.82 µM.
As for `COC(=O)C1(C)CCC(c2ccc(C)cc2)=C(CC(=O)O)C1` (stereo unspecified), the TGI with SK-MEL-28 melanoma, in the assay on UACC-257 melanoma, in the assay with BT-549 breast, with NCI-H522 lung, in the assay with SNB-19 CNS and in the assay on MDA-MB-231 breast was over 100 µM each time. Moreover, the TGI in the assay on 786-0 renal, in the assay with HT29 colon, with HOP-92 NSCLC and in the assay on HCT-15 colon was over 100 µM throughout.
